How the values were obtained:
[1] = tested on: human pituitary gland tissues; assay: binding affinity to human pituitary gland tissues; conditions: compared with Ghrelin, hexarelin, MK 0677 and JMV 1843
GH release [2] = assay: stimulation of GH release in vitro
GH release [3] = assay: GH release in vivo after subcutaneous injection in neonatal rats

CC(C)(N)C(=O)N[C@H](Cc1c[nH]c2ccccc12)C(=O)N[C@@H](C=NOCC(N)=O)Cc1c[nH]c2ccccc12 [(Ia), Aib-D-Trp-D-Trpψ[CH=N∼O]Gly-NH2]
binding affinity [1]: comparable to that of the natural ligand Ghrelin and superior to the binding affinity of the synthetic GH secretagogues
stimulating the GH release in vitro (GH release [2]): remarkably potent
stimulating the GH release in vivo (GH release [3]; in vivo): remarkably potent
amount of growth hormone released (GH release [3]; neonatal rats, injected subcutaneously, compared with MK 0677 and hexarelin): exceeded the amount released when the standard GH secretagogues MK 0677 and hexarelin were administered
